The source of these data is US20180134788A1, “Methods and Pharmaceutical Compositions (NTSR1 Inhibitors) for the Treatment of Hepatocellular Carcinomas” (INSERM (Institut National de la Sante et de la Recherche …, priority 2015, published 2018).

In assay [1] the test system is phosphorylated-EGFR in HEP 3B and PLC/RF5 cells. Put plainly: Western blot of Tyr 1173 phosphorylated EGFR in HCC cell lines. The class given is cell-based. The note with it: both cell lines, SB216763 treatment. The protocol:
(§1) (A) Typical immunocytochemistry labeling for NTSR1 (Top) and EGFR (Bottom) in PLC/RF5 and HEP 3B cells treated or not with 1 μM SB216763 or 5 μM SR4892 or both for 48 h. (B and C) Representative western blot analyses of Tyr 1173 phosphorylated EGFR, EGFR, and actin of HEP 3B and PLC/RF5 treated as indicate above.
In both cell lines, phosphorylated-EGFR was increased under SB216763 treatment this increase was abolished when SR 48692 was added to the treatment.

Assay [2] has as its system EGFR expression in PLC/PRF5 and HEP3B cells. Put plainly: EGFR immunocytochemistry labeling in HCC cell lines. Particulars: PLC/PRF5 and HEP3B, 48 h; 1 μM SB216763 or 5 μM SR48692. The class given is cell-based. The protocol:
as §1
(§2) It was previously shown that the NTS/NTSR1 complex potentiates EGF signaling in liver, colon, prostate, lung, and breast cancer. We investigated the possible relation between NTSR1 expression and EGFR expression and activation. […] Treatment with SR48692, a specific NTSR1 antagonist, decreased the expression of EGFR, whereas NTSR1 expression was not altered. When the combined treatment with SB216763 and SR48692 is used, the effect of SB216763 on EFGR expression is limited by the presence of the NTSR1 antagonist (FIG. 5A).

The subject of assay [3] is NTSR1 expression in HEP 3B and PLC/PRF5 cells. Put plainly: NTSR1 immunocytochemistry labeling in HCC cell lines. The class given is cell-based. As to the method:
(§3) (A) NTS, NTSR2, NTSR3, and NTSR1 transcript analysis from 400 ng of HuH7, HEP 3B, and PLC/RF5, total RNA. NTSR1 A and NTSR1 B show the amplicon from two different set of primers. (B) Typical immunocytochemistry labeling for NTSR1 and DAPI in HEP 3B and PLC/RF5 cells. Cells were seeded on glass slides, grown for 48 h, and immunocytochemistry was performed as described in the Materials and Methods section. (C) NTSR1 transcript analysis from HuH7, HEP 3B and PLC/RF5 of total RNA from cells treated or not with […] LiCl for 6 h. (D) Typical immunocytochemistry NTSR1 labeling of HEP 3B and PLC/RF5 cells treated with 1 μM SB 216763 for 6 h.
as §1
(§4) Among the three cell lines studied, only PLC/PRF5 cells presented a dysregulation in the beta catenin pathway with a deletion in Axin (E4/−). […] We previously hypothesized that NTSR1 expression was correlated with deregulated wnt/beta catenin pathways. To evaluate this hypothesis, we forced the cellular and nuclear relocation of β-catenin in these cells lines with the LiCl, and an inhibitor of the glycogen synthase kinase (GSK) 3β, the SB216763. LiCl and SB216763 are known to decrease the degradation of β-catenin by inhibiting GSK-3 and promoting the accumulation of β-catenin in the cytoplasm of liver cancer cells.
as §2

In another assay the test system is HEP-R1a tumors. Put plainly: HEP-R1a experimental tumor growth in mice. The class given is in vivo. As to the method:
(§5) (A) Experimental tumors were generated from the HCC cancer cell line, HEP 3B and PLC/RF5 and the NTSR1-overexpressing subclones. Comparative growth curves of HEP 3B, HEP-R1a, PLC/RF5, PLC/R1 in 8, 7, 10 and 7 mice, respectively. Tumor volumes were measured twice a week. (B) Tumor weight at 42 days. (C and D) Experimental tumors were generated from HEP 3B or HEP-R1a in the different mice. When the tumor size reached 100 mm3, mice were randomly distributed in 2 groups. A control group force feed with H2O, or with 1 mg/kg SR 48692 every day. (E) Typical IHC performed on paraffin sections for NTS, NTSR1 EGFR and phosphorylated EGFR labelling, 200× magnification.
(§6) Experimental tumors were generated from HEP 3B (A) and HEP-R1a (B) in the same mice. Mice were treated per os with 75 mg/kg erlotinib every day for 22 days. Tumor size was measured every two days. Result shown is the ratio of tumor compare to day 1. (C) The doubling time was subsequently calculated using the following formula: doubling time=t*((LN(2))/(LN(VOL F/VOL I)), at day 22.
(§7) Experimental tumors were generated from HEP 3B (D) or HEP-R1a (E) in the different mice. When the tumor size reached 100 mm^3, mice were randomly distributed in 2 groups. A control group force feed with H2O, and the treated group, force feed every day with […] sorafenib. Result shown is the ratio of tumor compare to day 1. (F) Tumor weight at day 15.
(§8) To determine the contribution of NTS/NTSR1 complex on tumor progression, mice were implanted with HCC cell lines and NTSR1 overexpressing clones. For HEP3B cells the tumors were measurable 21 days after cells injection. In contrast, the tumor burden for both clones overexpressing NTSR1 was measurable at day 13. The growth rate at day 42 was 2.9 and 2.08 fold higher for HEP-R1a and PLC-R1a as compared to respective parental cells, respectively, (FIG. 7A). As shown in FIG. 7B the tumor weights were in correspondence with the tumor size 4.3 and 2.8 fold higher for HEP-R1a and PLC-R1a as compared to their respective parental cells, respectively. To confirm the contribution of NTS/NSTR1 complex in tumor growth, animals were treated with a specific NTSR1 antagonist, the SR 48692. When tumors reach 100 mm3, the groups were treated per os with H2O, or 1 mg/kg SR 48692, respectively. […] The final tumor size of HEP-R1a tumors treated with SR 48692 was 441.9±39.85 mm^3, and was very similar to the untreated HEP 3B tumors 516.3±139.72 mm^3.
(§9) As shown above, NTSR1 activation induced a sustained EGFR activation, which we believe, acts as EGFR driver mutation (FIG. 4). To explore this hypothesis, the HCC cell lines HEP 3B and HEP-R1a were xenografted on the same mice. The mice were randomly distributed in two groups based on the size of the HEP 3B tumors. Since HEP-R1a tumors grow faster than HEP 3B tumors, HEP 3B cells were injected a few days before HEP-R1a cells. In the control group, the average HEP3B tumor size was 168.2±38.1 mm3 and the HEP-R1a tumor size was 79.7±16.4 mm3 at day 1. The treated group carried HEP 3B tumors of 164.7±31.2 mm3 and HEP-R1a tumors of 87.2±19.13 mm3 at day 1. Mice were daily treated, per os, with 75 mg/kg erlotinib or H2O for 22 days. […] Over the period of the treatment, the doubling time of HEP-R1a tumors was 7.0±0.55 days and 10.1±1.1 (p=0.0016) for control and treated with erlotinib, respectively. For the HEP 3B tumors, the doubling time was similar 7.8±0.52 and 7.7±0.84 days for control and treated group respectively (FIG. 8 C).
Sorafenib is a known multikinase inhibitor targeting Raf/MEK/ERK signaling at the level of Raf kinase, angiogenesis, VEGFR-2/-3, and PDGFR-β tyrosine kinase. Sorafenib is currently used to treat HCC with some success. In order to evaluate the autocrine NTS regulation on sorafenib responses, each HEP 3B or HEP-R1a cells were injected to four groups of mice. When tumors reach 100 mm3, the groups were treated per os with H2O, 30 mg/kg sorafenib for 15 days, respectively. […]

Assay [4] deals with HEP-R1b and HEP-R1a cells. In words: Clonogenic assay, NTSR1 overexpressing clones. The class given is cell-based. Particulars: two weeks. The protocol: (§10) (A) Cellular proliferation performed on HEP 3B and HEP-R1b cells. Results are the means of 3 independents experiments and expressed as percentage of respective control. (B) Clonogenic assay performed with HEP 3B and HEP-R1b cells treated with different dose of erlotinib. Cells were incubated for two weeks with the treatment. Results are the means of 6 independents experiments and expressed as percentage of respective control. (C) Cellular proliferation performed on HEP 3B and HEP-R1a cells. Results are the means of 6 independents experiments. (D) Clonogenic assay performed with HEP 3B and HEP-R1a cells treated with different dose of sorafenib. Cells were incubated for two weeks with the treatment. Results are the means of 6 independents experiments.
(§11) We confirmed the erlotinib and sorafenib responses in cells overexpressing NTSR1 in clonogenic assay. […] In contrast, HEP 3B cells are not sensitive either to erlotinib or sorafenib.

The test system of the next assay is advanced HCC. The note with it: patients with advanced HCC and well-compensated liver function, oral; cited from earlier work.
A further assay has as its system HEP 3B tumors. Put plainly: HEP 3B experimental tumor growth in mice. The class given is in vivo. The protocol:
as §5, §6, §7, §8
as §9, with “C). […]” for “C).”

Assay [5] relates to cells overexpressing NTSR1 versus HEP 3B cells. In words: Cellular proliferation test. The class given is cell-based. Particulars: cells overexpressing NTSR1 compared with HEP 3B cells. As to the method: as §10, §11
In a further assay the test system is HEP 3B cells. In words: Clonogenic assay, HEP 3B cells. The note with it: two weeks. The class given is cell-based. As to the method: as §10, §11
Assay [6] concerns NTSR1 transcription in HuH7, HEP 3B and PLC/PRF5 cells. In words: NTSR1 transcript analysis in HCC cell lines. The class given is cell-based. The note with it: three HCC cell lines, 20 nM LiCl for 6 h. The protocol:
as §3, §4

[7] abbreviates: 30 mg/kg sorafenib per os, 15 days.

As for `Cn1cc(C2=C(c3ccc(Cl)cc3Cl)C(=O)NC2=O)c2ccccc21` [SB216763], the phosphorylated-EGFR result in [1] was “increased”. Also, the EGFR expression result in assay [2] is “increase”. Also, the NTSR1 immunolabeling signal result in [3] (HEP3B and PLC/PRF5 cells, 1 μM SB 216763 for 6 h) is “remarkably amplified”. The NTSR1 expression entry in assay [3] (PLC/PRF5 and HEP3B, 48 h, 1 μM SB216763 or 5 μM SR48692) is “increase”.

For the compound `CNC(=O)c1cc(Oc2ccc(NC(=O)Nc3ccc(Cl)c(C(F)(F)F)c3)cc2)ccn1` [sorafenib], in the assay with HEP-R1a tumors (setting [7]), the final tumor size amounted to 400.3±59.9 mm3 and the tumor growth rate result was “inhibited by two fold”. The tumor weight in the assay on HEP-R1a tumors (sorafenib treated group, end of treatment (day 15)) was found to be 0.650 ± 0.080 g. Moreover, the number of colonies entry in [4] (HEP-R1a cells exposed to sorafenib) is on record as “markedly reduced”. Besides, the survival result in the assay with advanced HCC is on record as “prolong survival”. Also, the tumor growth rate entry in the assay with HEP 3B tumors (HEP 3B tumors, 30 mg/kg sorafenib per os, 15 days) was “no influence”. The “tumor weight versus control” value in the assay on HEP 3B tumors (HEP 3B tumors, sorafenib treated group, end of treatment) is given as “approximately equal”. Besides, the “sensitivity in cellular proliferation test” value in assay [5] is listed as “more sensitive”. Also, the “sensitivity in clonogenic assay” value in the assay with HEP 3B cells is given as “not sensitive”.

`[Cl-].[Li+]` [LiCl]: in assay [6], the NTSR1 transcription entry is given as “upregulated”.

Consider `C#Cc1cccc(Nc2ncnc3cc(OCCOC)c(OCCOC)cc23)c1` [erlotinib], for which, in the assay on HEP-R1a tumors (75 mg/kg erlotinib per os daily, 22 days), the tumor growth rate result is recorded as “drastically affected”. Also, the tumor doubling time in the assay with HEP-R1a tumors (75 mg/kg erlotinib, day 22) worked out at 10.1 ± 1.1 days; in the assay on HEP 3B tumors (HEP 3B tumors, 75 mg/kg erlotinib, day 22), 7.7 ± 0.84 days. Moreover, the number of colonies result in assay [4] (HEP-R1b cells exposed to erlotinib) was “markedly reduced”. Also, the tumor growth response entry with HEP 3B tumors (HEP3B tumors, 75 mg/kg erlotinib per os daily, 22 days) was “did not respond”. Besides, in [5], the “sensitivity in cellular proliferation test” value was “more sensitive”. Also, the “sensitivity in clonogenic assay” value in the assay with HEP 3B cells was “not sensitive”.
